From publication PMC12677652, “Procyanidin B3 and Its Derivatives Alleviate Neuronal Injury by Targeting G3BP1 for Ischemic Stroke Therapy” (Advanced Science, 2025)

How the values were obtained:
[1] = format: physicochemical
Method: Furthermore, a small‐molecule procyanidin B3‐benzophenone probe (PB3‐BP, 2, Figure 2G) was synthesized based on a non‐protective condensation strategy (Scheme S1, Supporting Information).^[ [29] ^] The stability of compound 2 is poor, and its structure is determined by 2D‐NMR after acetylation (Figure S4, Supporting Information). […] To identify the specific targeting sites of PB3 on G3BP1, the ultraviolet‐crosslinked complex of PB3‐BP/G3BP1 was digested with trypsin and subjected to LC‐MS/MS analysis.^[ [30] ^] […] To evaluate the affinity between the wild type and four mutants (L105A, R107A, Q134A, D135A) ^[ [34] ^] of the G3BP1 NTF2L domain and PB3, molecular dynamics simulations were performed to analyze each complex system based on docking results.^[ [35] ^]

G3BP1 = molecular target: T1, G3BP1 (Mus musculus, UniProt P97855); assay: Pull-down analysis with PB3-BP probe in HT22 lysates; format: binding; conditions: 200 µM PB3‐BP, blocked by free PB3
T1 construct: endogenous in cells; host or cells: HT22 cell lysate
Method: HT22 cells were grown to 90% confluency and harvested by trypsin and resuspended in 1 mL PBS (containing protease inhibitors and 0.1% Triton X‐100). The samples were subjected to three freeze–thaw cycles in liquid nitrogen. Each cell lysate was centrifuged (12000 g for 30 min at 4 °C), and the supernatant was collected. The protein concentrations were determined by a BCA protein assay kit (Thermo Scientific, USA). The lysates were adjusted to 2 mg mL^−1 and treated with 200 µM PB3 or DMSO, labeled with 200 µM of PB3‐BP or DMSO, and then put on ice under UV radiation at 365 nm for 1 h. The labeled proteins were precipitated with chloroform‐methanol. Then the precipitations were resuspended with 1.2% SDS/PBS and combined with 300 µM biotin‐PEG3‐azide, 100 µM tris(benzyltriazolylmethyl)amine, 1 mM tris(2‐carboxyethyl)phosphine hydrochloride, and 1 mM CuSO4 for 1 h. After this reaction, the proteomes were extracted again with chloroform‐methanol. The proteins were solubilized with 1.2% SDS/PBS and diluted 5x with PBS. The solubilized proteins were incubated with streptavidin beads (100 µL of slurry, Thermo Scientific, USA) at room temperature for 3 h with rotation. […] The eluted proteins were analyzed by SDS‐polyacrylamide gel electrophoresis and immunoblotted with anti‐G3BP1 antibody.

OGD/R‐treated HT22 cells = assay: Neuroprotective effect on OGD/R-treated HT22 cells, cell viability by CCK-8; format: cell-based; conditions: for viability at 2 µM / viability at 20 µM: Mus musculus, HT-22, 6 h OGD, 24 h reoxygenation with compound, relative to control cells, mean ± S.D., n = 3
Method: HT22 cells were washed with phosphate buffered saline (PBS), then DMEM sugar‐free medium (Gibco, USA) was added and placed in the anaerobic incubator of 5% CO2, 1% O2, and 37 °C for 6 h. PB3 or other compounds were previously dissolved in DMEM/F‐12 with 10% FBS and 1% penicillin/streptomycin. After undergoing OGD for 6 h, the medium was replaced by DMEM/F‐12 with 10% FBS and 1% penicillin/streptomycin containing PB3 or other compounds and kept in a humidified 5% CO2, 37 °C incubator for 24 h.
The CCK‐8 assay kit (Yeasen, China) was used to assess cell viability. All operations were performed following instructions. HT22 cells were seeded into the 96‐well plate (3000 cells per well). The cells were cultured at 37 °C with 5% CO2 in a humidified incubator overnight. After 6 h of OGD, the medium was replaced by DMEM/F‐12 with 10% FBS and 1% penicillin/streptomycin containing PB3 or other compounds and kept in a humidified 5% CO2, 37 °C incubator for 24 h. Then, the cells were washed with PBS, the medium was replaced with DMEM/F‐12 with 10% FBS and 1% penicillin/streptomycin containing 10% CCK‐8 solution, and incubated for 1 h at 37 °C. The absorbance was assessed by a Synergy H1 multi‐mode microplate reader (BioTek, USA) at 450 nm.

T1 sequence (P97855 whole entry): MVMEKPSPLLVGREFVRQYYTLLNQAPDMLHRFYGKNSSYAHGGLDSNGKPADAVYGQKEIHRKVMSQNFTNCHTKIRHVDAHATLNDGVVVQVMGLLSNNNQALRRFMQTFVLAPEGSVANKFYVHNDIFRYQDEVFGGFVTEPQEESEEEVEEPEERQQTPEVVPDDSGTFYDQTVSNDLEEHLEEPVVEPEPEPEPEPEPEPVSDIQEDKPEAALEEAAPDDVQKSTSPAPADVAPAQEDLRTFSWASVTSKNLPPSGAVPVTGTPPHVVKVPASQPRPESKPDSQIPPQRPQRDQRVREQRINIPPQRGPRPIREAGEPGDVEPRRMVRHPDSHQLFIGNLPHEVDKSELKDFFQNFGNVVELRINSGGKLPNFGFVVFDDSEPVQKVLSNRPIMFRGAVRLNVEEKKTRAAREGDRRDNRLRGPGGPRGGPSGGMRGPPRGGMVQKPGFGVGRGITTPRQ

| stability [1] | pull-down of G3BP1 (G3BP1) | SMILES | neuroprotective activity (OGD/R‐treated HT22 cells; 100 µM, OGD/R‐treated HT22 cells) | viability at 2 µM (OGD/R‐treated HT22 cells) | viability at 20 µM (OGD/R‐treated HT22 cells) |
| --- | --- | --- | --- | --- | --- |
| poor | pulled down | C#CCN(Cc1ccc(C(=O)c2ccccc2)cc1)C(=O)COc1cc(O)c([C@@H]2c3c(O)cc(O)cc3O[C@H](c3ccc(O)c(O)c3)[C@H]2O)c2c1C[C@H](O)[C@@H](c1ccc(O)c(O)c1)O2 [Compound 2, N‐(4‐Benzoylbenzyl)‐2‐(((2R,2′R,3S,3′S,4S)‐2,2′‐bis(3,4‐dihydroxyphenyl)‐3,3′,5,7,7′‐pentahydroxy‐[4,8′‐bichroman]‐5′‐yl)oxy)‐N‐(prop‐2‐yn‐1‐yl)acetamide] | retained the neuroprotective activity of PB3 |  |  |
|  |  | Cc1c(O)cc(O)c2c1O[C@H](c1ccc(O)c(O)c1)[C@@H](O)[C@@H]2c1c(O)cc(O)c2c1O[C@H](c1ccc(O)c(O)c1)[C@@H](O)C2 [Compound 6a, 8‐Methyl‐(+)‐Catechin‐(4α,8)‐(+)‐Catechin] |  | 56.7 ± 2.22% | 70.2 ± 2.92% |
|  |  | CCc1c(O)cc(O)c2c1O[C@H](c1ccc(O)c(O)c1)[C@@H](O)[C@@H]2c1c(O)cc(O)c2c1O[C@H](c1ccc(O)c(O)c1)[C@@H](O)C2 [Compound 6b, 8‐Ethyl‐(+)‐Catechin‐(4α,8)‐(+)‐Catechin] |  | 62 ± 9.21% | 73.6 ± 4.78% |
|  |  | CCCc1c(O)cc(O)c2c1O[C@H](c1ccc(O)c(O)c1)[C@@H](O)[C@@H]2c1c(O)cc(O)c2c1O[C@H](c1ccc(O)c(O)c1)[C@@H](O)C2 [Compound 6d, 8‐Propyl‐(+)‐Catechin‐(4α,8)‐(+)‐Catechin] |  | 62.1 ± 3.73% | 78.8 ± 1.43% |
|  |  | CC(C)Cc1c(O)cc(O)c2c1O[C@H](c1ccc(O)c(O)c1)[C@@H](O)[C@@H]2c1c(O)cc(O)c2c1O[C@H](c1ccc(O)c(O)c1)[C@@H](O)C2 [Compound 6e, 8‐Isobutyl‐(+)‐Catechin‐(4α,8)‐(+)‐Catechin] |  | 58.5 ± 8.12% | 67 ± 2.7% |
|  |  | Oc1ccc([C@H]2Oc3c(-c4ccccc4)c(O)cc(O)c3[C@@H](c3c(O)cc(O)c4c3O[C@H](c3ccc(O)c(O)c3)[C@@H](O)C4)[C@@H]2O)cc1O [Compound 6f, 8‐Phenyl‐(+)‐Catechin‐(4α,8)‐(+)‐Catechin] |  | 59.7 ± 7.43% | 70.4 ± 7.72% |
|  |  | Oc1ccc([C@H]2Oc3c(-c4ccncc4)c(O)cc(O)c3[C@@H](c3c(O)cc(O)c4c3O[C@H](c3ccc(O)c(O)c3)[C@@H](O)C4)[C@@H]2O)cc1O [Compound 6g, 8‐(Pyridin‐4‐yl)‐(+)‐Catechin‐(4α,8)‐(+)‐Catechin] |  | 55.9 ± 8.56% | 71.4 ± 1.74% |
|  |  | Oc1ccc([C@H]2Oc3c(-c4cccnc4)c(O)cc(O)c3[C@@H](c3c(O)cc(O)c4c3O[C@H](c3ccc(O)c(O)c3)[C@@H](O)C4)[C@@H]2O)cc1O [Compound 6h, 8‐(Pyridin‐3‐yl)‐(+)‐Catechin‐(4α,8)‐(+)‐Catechin] |  | 58.8 ± 7.12% | 75.3 ± 4.68% |
|  |  | CC(=O)O[C@H]1[C@H](c2c(O)cc(O)c3c2O[C@H](c2ccc(O)c(O)c2)[C@@H](OC(C)=O)C3)c2c(O)cc(O)cc2O[C@@H]1c1ccc(O)c(O)c1 [Compound 8, 3‐O‐Acetyl‐(+)‐Catechin‐(4α,8)‐[3‐O‐Acetyl‐(+)‐Catechin]] |  | 62 ± 5.58% | 69.3 ± 6.73% |
|  |  | COc1cc(OC)c2c(c1)O[C@H](c1ccc(OC)c(OC)c1)[C@@H](O)[C@@H]2c1c(OC)cc(OC)c2c1O[C@H](c1ccc(OC)c(OC)c1)[C@@H](O)C2 [Compound 9, 5,7,3′,4′‐Tetra‐O‐Methyl‐(+)‐Catechin‐(4α, 8)‐[5,7,3′,4′‐Tetra‐O‐Methyl‐(+)‐Catechin]] |  | 52.6 ± 7.34% | 66.8 ± 1.89% |
|  |  | COc1cc([C@H]2Oc3cc(O)cc(O)c3[C@@H](c3c(O)cc(O)c4c3O[C@H](c3ccc(O)c(O)c3)[C@@H](O)C4)[C@@H]2O)ccc1O [Compound 13a, 3′‐O‐Methyl‐(+)‐Catechin‐(4α,8)‐(+)‐Catechin] |  | 59.6 ± 2.82% | 65.5 ± 4.74% |
|  |  | COc1ccc([C@H]2Oc3cc(O)cc(O)c3[C@@H](c3c(O)cc(O)c4c3O[C@H](c3ccc(O)c(O)c3)[C@@H](O)C4)[C@@H]2O)cc1O [Compound 13b, 4′‐O‐Methyl‐(+)‐Catechin‐(4α,8)‐(+)‐Catechin] |  | 57.5 ± 7.11% | 70.54 ± 0.41% |
|  |  | COc1cc([C@H]2Oc3c(c(O)cc(O)c3[C@@H]3c4c(O)cc(O)cc4O[C@H](c4ccc(O)c(O)c4)[C@H]3O)C[C@@H]2O)ccc1O [Compound 13c, (+)‐Catechin‐(4α,8)‐[3′‐O‐Methyl‐(+)‐Catechin]] |  | 66.2 ± 10.6% | 66.1 ± 2.9% |
|  |  | COc1ccc([C@H]2Oc3c(c(O)cc(O)c3[C@@H]3c4c(O)cc(O)cc4O[C@H](c4ccc(O)c(O)c4)[C@H]3O)C[C@@H]2O)cc1O [Compound 13d, (+)‐Catechin‐(4α,8)‐[4′‐O‐Methyl‐(+)‐Catechin]] |  | 63 ± 6.27% | 69 ± 8.76% |
|  |  | CC1=NN(c2ccccc2)C(=O)C1 [EDA, edaravone, reference compound] |  | 60.8 ± 7.4% | 71.5 ± 9.84% |
